Read-outs that look alike come from different tables or passages of the source.

One data set deals with tubulin. The experiment in a line: Tubulin polymerization assay. Conditions: for effect on tubulin polymerization / time to reach maximum/plateau of tubulin polymerization: 3 µM; for effect on tubulin polymerization: not irradiated; for time to reach maximum/plateau of tubulin polymerization: 37 °C, monitored 1 h; for tubulin polymerization effect of irradiated sample: sample irradiated with far-red light.

The format of data set [1] is physicochemical. As to conditions: 10 µM in DMEM with 5% FCS, 690 nm.
A further data set concerns SKOV-3 cells. Nature of the data set: Stability of prodrugs with the SKOV-3 cells in the dark. As to conditions: 500 nM, 3 day incubation with SKOV-3 cells. Type of data set: in vitro ADME.
A short description of data set [2]: Solubility in aqueous medium. The format is physicochemical. As to conditions: qualitative.
Data set [3] in a line: Stability of prodrugs in the complete medium under dark conditions. The format is physicochemical. Conditions: 37 °C, 10 µM, 96 h.
Where [4] appears, read: 5.6 mW/cm^2, illumination 30 min.

Take `CC(=O)O[C@H]1C(=O)[C@@]2(C)[C@H]([C@H](OC(=O)c3ccccc3)[C@]3(O)C[C@H](OC(=O)[C@H](O)[C@@H](NC(=O)c4ccccc4)c4ccccc4)C(C)=C1C3(C)C)[C@]1(OC(C)=O)CO[C@@H]1C[C@@H]2O` [PTX, Paclitaxel, reference compound]: in the data set with tubulin, the “effect on tubulin polymerization” value is “the tubulin polymerization was rapid”.
As for `CC(=O)O[C@H]1C(=O)[C@@]2(C)[C@H](O)C[C@@H]3OC[C@]3(OC(C)=O)[C@@H]2[C@@H](OC(=O)c2ccccc2)[C@]2(O)C[C@@H](OC(=O)[C@@H](OC(=O)CCC(=O)N3CCN(CCO[Si]4(OCCN5CCN(C(=O)CCC(=O)O[C@@H](C(=O)O[C@@H]6C[C@@]7(O)[C@H](OC(=O)c8ccccc8)[C@H]8[C@@]9(OC(C)=O)CO[C@H]9C[C@@H](O)[C@]8(C)C(=O)[C@H](OC(C)=O)C(=C6C)C7(C)C)[C@H](NC(=O)c6ccccc6)c6ccccc6)CC5)n5c6c7ccccc7c5/N=C5N=C(/N=c7/c8ccccc8/c(n74)=N/C4=NC(=N\6)/c6ccccc64)c4ccccc4\5)CC3)[C@H](NC(=O)c3ccccc3)c3ccccc3)C(C)=C1C2(C)C` (stereo partly shown) [Compound 5], the “PTX released from the prodrug” value in data set [1] (setting [4]) is “could not detect PTX”. Besides, the “reduction of recovered prodrug (cells + culture medium)” value with SKOV-3 cells is on record as 3.1%. In data set [2], the “solubility in aqueous medium” value is listed as “lower solubility in aqueous medium than 4”. Further, in the data set on tubulin, the “time to reach maximum/plateau of tubulin polymerization” value is ~ 40 min and the “tubulin polymerization effect of irradiated sample” value is “not much change”.
Take `CC(=O)O[C@H]1C(=O)[C@@]2(C)[C@H]([C@H](OC(=O)c3ccccc3)[C@]3(O)C[C@H](OC(=O)[C@H](OC(=O)/C=C/N4CCN(CCO[Si]5(OCCN6CCN(/C=C/C(=O)O[C@@H](C(=O)O[C@H]7C[C@@]8(O)[C@@H](OC(=O)c9ccccc9)[C@@H]9[C@]%10(OC(C)=O)CO[C@@H]%10C[C@H](O)[C@@]9(C)C(=O)[C@H](OC(C)=O)C(=C7C)C8(C)C)[C@@H](NC(=O)c7ccccc7)c7ccccc7)CC6)n6c7c8ccccc8c6/N=C6N=C(/N=c8/c9ccccc9/c(n85)=N/C5=NC(=N\7)/c7ccccc75)c5ccccc5\6)CC4)[C@@H](NC(=O)c4ccccc4)c4ccccc4)C(C)=C1C3(C)C)[C@]1(OC(C)=O)CO[C@@H]1C[C@@H]2O` [Compound 4]: in data set [3], the “decrease (loss) of prodrug in complete medium” value is on record as “less than 7%”. Moreover, the “PTX released from the prodrug” value was “about 83%” in data set [1] (5.6 mW/cm^2, illumination 10 min) and roughly 93% in data set [1] (setting [4]). Besides, the “reduction of recovered prodrug (cells + culture medium)” value in the data set on SKOV-3 cells stood at 4.9%. Besides, the “time to reach maximum/plateau of tubulin polymerization” value in the data set with tubulin is listed as ~ 40 min. Further, the “tubulin polymerization effect of irradiated sample” value in the data set with tubulin was “significantly increased”.
`COc1ccc(/C=C\c2cc(OC)c(OC)c(OC)c2)cc1O` [CA4, Combretastatin A-4, reference compound]: the “effect on tubulin polymerization” value with tubulin is “almost completely prevented the polymerization”.
